Reference: ChEMBL document CHEMBL5154647, “Discovery of seneciobipyrrolidine derivatives for the amelioration of glucose homeostasis disorders through 4E-BP1/Akt/AMPK signaling activation” (Eur J Med Chem, 2022)
Calls of active or inactive are those of the source. The calls are words filed in the database; no cut-off is given here.

Columns and labels:
[1] = test system: Mus musculus; test: Antidiabetic activity in db/db mouse assessed as reduction in random blood glucose level at 300 mg/kg, po bid measured up to 21 days; format: functional; set-up: scale not given: the % may be the effect or the level left; details: time <= 21 day
[2] = Toxicity in db/db mouse assessed as effect on muscle tissue morphology at 300 mg/kg, po bid administered for 21 days by H and E staining based microscopic analysis; format: organism-based; details: in vivo, 504 h, time 21 day
[3] = Toxicity in db/db mouse assessed as reduction in total cholesterol at 300 mg/kg, po administered for 21 days; format: organism-based; details: in vivo, 504 h, time 21 day
[4] = test system: Mus musculus; test: Antidiabetic activity in db/db mouse assessed as reduction in fasting blood glucose level at 300 mg/kg, po bid measured up to 21 days; format: functional; set-up: scale not given: the % may be the effect or the level left; details: time <= 21 day
[5] = Toxicity in db/db mouse assessed as increase in body weight at 300 mg/kg, po administered for 21 days; format: organism-based; details: in vivo, 504 h, time 21 day
[6] = Toxicity in db/db mouse liver assessed as reduction of fat accumulation in liver at 300 mg/kg, po bid administered for 21 days by H and E staining based microscopic analysis; format: organism-based; details: in vivo, 504 h, time 21 day
[7] = test system: Mus musculus; test: Antidiabetic activity in db/db mouse assessed as reduction in blood glucose level at 300 mg/kg, po bid measured after 6 hrs; format: functional; set-up: scale not given: the % may be the effect or the level left
[8] = Toxicity in db/db mouse assessed as reduction in triglyceride at 300 mg/kg, po administered for 21 days; format: organism-based; details: in vivo, 504 h, time 21 day
[9] = Toxicity in db/db mouse assessed as effect on pancreas morphology at 300 mg/kg, po bid administered for 21 days by H and E staining based microscopic analysis; format: organism-based; details: in vivo, 504 h, time 21 day
[10] = test system: Muscle tissue; test: Effect on 4E-BP1 in db/db mouse muscle tissue assessed as increase in 4E-BP1 protein level at 100 mg/kg, po bid administered for 21 days by immunohistochemical staining analysis; format: functional, organism-based; details: time 21.0 day
[11] = Toxicity in db/db mouse assessed as decrease in body weight at 100 mg/kg, po administered for 21 days; format: organism-based; details: in vivo, 504 h, time 21 day
[12] = Half life in Sprague-Dawley rat at 20 mg/kg, po measured upto 10 hrs by LC/MS/MS analysis; format: ADME, organism-based; details: in vivo
[13] = Cmax in Sprague-Dawley rat at 20 mg/kg, po measured upto 10 hrs by LC/MS/MS analysis; format: ADME, organism-based; set-up: time < 10 hrs, dose 20 mg/kg, route po; details: in vivo
[14] = Toxicity in db/db mouse assessed as effect on pancreas morphology at 100 mg/kg, po bid administered for 21 days by H and E staining based microscopic analysis; format: organism-based; details: in vivo, 504 h, time 21 day
[15] = test system: Mus musculus; test: Antidiabetic activity in db/db mouse assessed as reduction in fasting blood glucose level at 100 mg/kg, po bid measured up to 21 days; format: functional; set-up: scale not given: the % may be the effect or the level left; details: time <= 21 day
[16] = test system: L6; test: Activation of Akt in rat L6 myoblasts assessed as increase in AKT phosphorylation at Ser473 at 25 uM measured after 30 mins by western blot analysis; format: cell-based; details: filed as activator
[17] = Toxicity in db/db mouse assessed as effect on muscle tissue morphology at 100 mg/kg, po bid administered for 21 days by H and E staining based microscopic analysis; format: organism-based; details: in vivo, 504 h, time 21 day
[18] = AUC (0 to t) in Sprague-Dawley rat at 20 mg/kg, po measured upto 10 hrs by LC/MS/MS analysis; format: ADME, organism-based; set-up: time < 10 hrs, dose 20 mg/kg, route po; details: in vivo
[19] = test system: Mus musculus; test: Improvement in glucose tolerance in db/db mouse assessed as reduction in blood glucose level at 300 mg/kg, po measured after 20 days; format: functional, organism-based; details: time 20.0 day
[20] = test system: L6; test: Activation of Akt in rat L6 myoblasts assessed as increase in Akt protein level at 25 uM measured after 30 mins by western blot analysis; format: cell-based; details: filed as activator
[21] = biological target: Eukaryotic translation initiation factor 4E-binding protein 1 (Rattus norvegicus) (UniProt Q62622); test: Activation of 4E-BP1 in rat L6 myoblasts assessed as increase in 4E-BP1 protein level at 25 uM measured after 30 mins by western blot analysis; format: cell-based; details: filed as activator
Eukaryotic translation initiation factor 4E-binding protein 1 (Rattus norvegicus), sequence (Q62622 whole entry): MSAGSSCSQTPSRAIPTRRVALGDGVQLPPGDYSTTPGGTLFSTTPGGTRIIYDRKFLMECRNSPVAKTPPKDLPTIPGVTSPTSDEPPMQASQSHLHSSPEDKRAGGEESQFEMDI

[22] = Toxicity in db/db mouse assessed as reduction in triglyceride at 75 mg/kg, po administered for 21 days; format: organism-based; details: in vivo, 504 h, time 21 day
[23] = test system: Pancreas; test: Effect on 4E-BP1 in db/db mouse pancreas assessed as increase in 4E-BP1 protein level at 100 mg/kg, po bid administered for 21 days by immunohistochemical staining analysis; format: functional, organism-based; details: time 21.0 day
[24] = test system: Mus musculus; test: Antidiabetic activity in db/db mouse assessed as reduction in random blood glucose level at 75 mg/kg, po bid measured up to 21 days; format: functional; set-up: scale not given: the % may be the effect or the level left; details: time <= 21 day
[25] = Half life in Sprague-Dawley rat at 5 mg/kg, iv measured upto 24 hrs by LC/MS/MS analysis; format: ADME, organism-based; details: in vivo
[26] = biological target: T1, AMP-activated protein kinase, AMPK (Rattus norvegicus) (UniProt P54645+Q09137+P80386+P80385+Q9QZH4+Q6V7V4+D4A7E4); test: Activation of AMPK in rat L6 myoblasts assessed as increase in AMPK phosphorylation at Thr172 at 25 uM measured after 30 mins by western blot analysis; format: cell-based; details: filed as activator
[27] = Oral bioavailability in Sprague-Dawley rat at 20 mg/kg measured upto 10 hrs by LC/MS/MS analysis; format: ADME, organism-based; details: in vivo
[28] = test system: Mus musculus; test: Antidiabetic activity in db/db mouse assessed as reduction in fasting blood glucose level at 75 mg/kg, po bid measured up to 21 days; format: functional; set-up: scale not given: the % may be the effect or the level left; details: time <= 21 day
[29] = Cmax in Sprague-Dawley rat at 5 mg/kg, iv measured upto 24 hrs by LC/MS/MS analysis; format: ADME, organism-based; set-up: dose 5 mg/kg, time < 24 hrs, route iv; details: in vivo
[30] = test system: L6; test: Time dependent activation of Akt in rat L6 myoblasts assessed as increase in AKT phosphorylation at Ser473 at 10 to 180 min by western blot analysis; format: cell-based; details: filed as activator, time 10-180 min, TDE = time-dependent effect
[31] = Toxicity in db/db mouse assessed as reduction in total cholesterol at 75 to 100 mg/kg, po administered for 21 days; format: organism-based; details: in vivo, 504 h, dose 75-100 mg/kg, time 21 day
[32] = test system: Mus musculus; test: Antidiabetic activity in db/db mouse assessed as reduction in blood glucose level at 100 mg/kg, po bid measured after 6 hrs; format: functional; set-up: scale not given: the % may be the effect or the level left
[33] = test system: Mus musculus; test: Improvement in glucose tolerance in db/db mouse assessed as reduction in blood glucose level at 100 mg/kg, po measured after 20 days; format: functional, organism-based; details: time 20.0 day
[34] = test system: Liver; test: Effect on 4E-BP1 in db/db mouse liver assessed as increase in 4E-BP1 protein level at 100 mg/kg, po bid administered for 21 days by immunohistochemical staining analysis; format: functional, organism-based; details: time 21.0 day
[35] = Toxicity in db/db mouse assessed as increase in body weight at 75 mg/kg, po administered for 21 days; format: organism-based; details: in vivo, 504 h, time 21 day
[36] = test system: L6; test: Induction of glucose uptake in rat L6 myoblasts preincubated for 3 hrs with compound and in presence of 2-deoxyglucose measured after 1 hrs by DNTB reagent based colorimetric assay; format: functional, cell-based
[37] = biological target: Eukaryotic translation initiation factor 4E-binding protein 1 (Rattus norvegicus) (UniProt Q62622); test: Activation of 4E-BP1 in rat L6 myoblasts assessed as increase in 4E-BP1 protein level at 0.1 to 25 uM by western blot analysis; format: cell-based; details: filed as activator, dose 0.1-25 µM, DDE = dose-dependent effect
[38] = biological target: T1, AMP-activated protein kinase, AMPK (Rattus norvegicus); test: Activation of AMPK in rat L6 myoblasts assessed as increase in AMPK phosphorylation at Thr172 at 0.1 to 25 uM by western blot analysis; format: cell-based; details: filed as activator, dose 0.1-25 µM, DDE = dose-dependent effect
[39] = Toxicity in db/db mouse assessed as reduction in triglyceride at 100 mg/kg, po administered for 21 days; format: organism-based; details: in vivo, 504 h, time 21 day
[40] = AUC (0 to t) in Sprague-Dawley rat at 5 mg/kg, iv measured upto 24 hrs by LC/MS/MS analysis; format: ADME, organism-based; set-up: dose 5 mg/kg, time < 24 hrs, route iv; details: in vivo
[41] = test system: Mus musculus; test: Antidiabetic activity in db/db mouse assessed as reduction in random blood glucose level at 100 mg/kg, po bid measured up to 21 days; format: functional; set-up: scale not given: the % may be the effect or the level left; details: time <= 21 day
[42] = test system: L6; test: Activation of Akt in rat L6 myoblasts assessed as increase in AKT phosphorylation at Ser473 at 0.1 to 25 uM by western blot analysis; format: cell-based; details: filed as activator, dose 0.1-25 µM, DDE = dose-dependent effect
[43] = test system: L6; test: Induction of glucose uptake in rat L6 myoblasts assessed as 2-DG concentration at 25 uM preincubated for 3 hrs and in presence of 2-deoxyglucose measured after 1 hrs by DNTB reagent based colorimetric assay; format: functional; details: time 4 hrs
[44] = Toxicity in db/db mouse liver assessed as reduction of fat accumulation in liver at 100 mg/kg, po bid administered for 21 days by H and E staining based microscopic analysis; format: organism-based; details: in vivo, 504 h, time 21 day
[45] = biological target: Eukaryotic translation initiation factor 4E-binding protein 1 (Rattus norvegicus) (UniProt Q62622); test: Time dependent activation of 4E-BP1 in rat L6 myoblasts assessed as increase in 4E-BP1 protein level at 10 to 180 min by western blot analysis; format: cell-based; details: filed as activator, time 10-180 min, TDE = time-dependent effect
[46] = biological target: T1, AMP-activated protein kinase, AMPK (Rattus norvegicus); test: Time dependent activation of AMPK in rat L6 myoblasts assessed as increase in AMPK phosphorylation at Thr172 at 10 to 180 min by western blot analysis; format: cell-based; details: filed as activator, time 10-180 min, TDE = time-dependent effect
[47] = test system: L6; test: Induction of glucose uptake in rat L6 myoblasts at 20 uM measured after 2 hrs by liquid scintillation counter; format: functional
[48] = biological target: T1, AMP-activated protein kinase, AMPK (Rattus norvegicus); test: Activation of AMPK in rat L6 myoblasts assessed as increase in AMPK protein level at 25 uM measured after 30 mins by western blot analysis; format: cell-based; details: filed as activator
[49] = Tmax in Sprague-Dawley rat at 20 mg/kg, po measured upto 10 hrs by LC/MS/MS analysis; format: ADME, organism-based; details: in vivo

In the case of CN(C)C(=N)NC(=N)N [METFORMIN], the Activity [1] is reported as 40.3%, the Activity [2] is reported as “Non-Toxic” and the Activity [3] is reported as “Toxic”. For the same molecule, the Activity [4] was 26.6%, the Activity [5] was “Non-Toxic” and the Activity [6] was “Toxic”. The Activity [7] was 49.7%, the Activity [8] was “Toxic” and the Activity [9] was “Non-Toxic”.
In the case of COc1ccc2c(c1)[C@H]1[C@H](CCN1CCc1ccc(Cl)cc1)[C@H]1CCCN21 (racemic), the Activity [10] is reported as “Active”, the Activity [11] is reported as “Toxic” and the half-life [12] is reported as 12.4 h. For the same molecule, the Cmax [13] was 0.141 µg/mL, the Activity [14] was “Non-Toxic” and the Activity [15] was 62.1%. The Activity [16] was “Active”, the Activity [17] was “Non-Toxic” and the AUC(0-t) at 10 h [18] was 0.469 µg·h/mL. For the same molecule, the Activity [19] was “Active”, the Activity [20] was “Active” and the fold change (FC) [21] was 2. For the same molecule, the Activity [22] was “Toxic”, the Activity [23] was “Active” and the Activity [24] was 77.2%. The half-life [25] was 3.9 h, the Activity [26] was “Active” and the bioavailability [27] was 19.9%. For the same molecule, the Activity [28] was 65.5%, the Cmax [29] was 0.542 µg/mL and the Activity [30] was “Tde”. The Activity [31] was “Toxic”, the Activity [32] was 38.1% and the Activity [33] was “Active”. For the same molecule, the Activity [34] was “Active”, the Activity [35] was “Non-Toxic” and the EC50 [36] was 2.7 µM. The Activity [37] was “Dde”, the Activity [38] was “Dde” and the Activity [39] was “Toxic”. For the same molecule, the AUC(0-t) at 24 h [40] was 0.589 µg·h/mL, the Activity [41] was 79% and the Activity [42] was “Dde”. For the same molecule, the Activity [43] was 81.9 pmol/µL, the Activity [44] was “Toxic” and the Activity [45] was “Tde”. The Activity [46] was “Tde”, the Activity [47] was 215.6% and the Activity [48] was “Active”. For the same molecule, the Tmax [49] was 0.5 h.
